In US6635475B1, “Bacillus subtilis extracytoplasmic function σ factor” (Cornell Research Foundation, Inc., priority 1999, dated 2003):
Where a SMILES comes first, the peptide text is derived from it. Bridges are numbered along the chain shown (N, C = ends). [ ]: non-standard residue; d: D form. The star is where a group is joined. Ileψ(thiazoline)Cys = CC[C@H](C)[C@H](N)C1=N[C@H](C(=O)*)CS1; dOrn = NCCC[C@@H](N)C(=O)O

System: sigW mutant
Assay: sigW mutant tested for increased sensitivity to chemical insults (zones of inhibition)
Type: cell-based, Bacillus subtilis
Conditions: sigW mutant strain tested for increased sensitivity to a variety of chemical insults
Text: Identification of members of the σ^W regulon allows prediction of the phenotypes likely to be associated with a sigW mutation. A sigW mutant strain is not grossly defective in any of the well-characterized processes associated with post-exponential phase, including sporulation, competence, and protein secretion. It has been previously reported that sigW transcription is not induced by a temperature shift from 37 to 50 degrees C. (Huang et al., 1998) and the same is true for the four tested members of the σ^W regulon (ydbS, yeaA, yxjI, ysdB). Since several members of the σ^W regulon encode enzymes with a predicted detoxification function (FIG. 3), a sigW mutant was tested for increased sensitivity to a variety of chemical insults.

Compound | differences in the zones of inhibition
O[C@H](CS)[C@H](O)CS (racemic) [dithiothreitol] | no differences
OCCS [2-mercaptoethanol] | no differences
O=C(O)CN(CCN(CC(=O)O)CC(=O)O)CC(=O)O [EDTA] | no differences
[Fe+3] [Fe^3+] | no differences
Cl [HCI] | no differences
[Mn+2] [Mn^2+] | no differences
[Na+].[OH-] [NAOH] | no differences
[Cl-].[Na+] [NaCl] | no differences
CC1(C)S[C@@H]2[C@H](NC(=O)[C@H](N)c3ccccc3)C(=O)N2[C@H]1C(=O)O [ampicillin] | no differences
CC[C@H](C)[C@H](N)C1=N[C@H](C(=O)N[C@@H](CC(C)C)C(=O)N[C@H](CCC(=O)O)C(=O)N[C@H](C(=O)N[C@H]2CCCCNC(=O)[C@H](CC(N)=O)NC(=O)[C@@H](CC(=O)O)NC(=O)[C@H](Cc3cnc[nH]3)NC(=O)[C@@H](Cc3ccccc3)NC(=O)[C@H]([C@@H](C)CC)NC(=O)[C@@H](CCCN)NC2=O)[C@@H](C)CC)CS1 [bacitracin] ({Ileψ(thiazoline)Cys}-L[dE]IK[dOrn]I[dF]H[dD]N; lactam 4-C) | no differences
O=C(N[C@H](CO)[C@H](O)c1ccc([N+](=O)[O-])cc1)C(Cl)Cl [chloramphenicol] | no differences
OO [hydrogen peroxide] | no differences
C[n+]1ccc(-c2cc[n+](C)cc2)cc1 [methyl viologen] | no differences
CCCCCCCCCCCCOS(=O)(=O)[O-].[Na+] [sodium dodecyl sulfate] | no differences
CN[C@@H]1[C@H](O)[C@H](NC)[C@H]2O[C@@]3(O)C(=O)C[C@@H](C)O[C@H]3O[C@@H]2[C@H]1O [spectinomycin] | no differences
gentamicin sulfate | no differences
lysozyme | no differences
neomycin | no differences
nisin | no differences
polymyxins | no differences
